Laboratory results published in PMC8121805, “Discovery of first-in-class inhibitors of ASH1L histone methyltransferase with anti-leukemic activity” (Nature Communications, 2021).
“And” between values parts separate entries of the source, which are not always exact repeats. Equal values may be shown once.

How the values were obtained:
Type in all cases: cell-based, human
K562 cells = test: MTT cell viability assay
Procedure: (§1) Human leukemia cells K562, MV4;11 and RS4;11 (purchased from ATCC) and KOPN8, MOLM13 (purchased from DSMZ) were cultured in RPMI 1640 (Invitrogen) supplemented with 10% heat inactivated (h.i.) FBS and 1% penicillin/streptomycin (Invitrogen). SET2 cells (purchased from DSMZ) were cultured in RPMI 1640 supplemented with 20% h.i. FBS and 1% penicillin/streptomycin. Cells were plated at 1 × 10^5 to 2 × 10^5 cells/mL depending on cell line and treated with 0.25% DMSO or varying concentrations of compounds and incubated at 37 °C, 5% CO2 incubator for 7 days. Media was changed on day 3 or 4 and compounds were resupplied. […] Cell suspensions (100 μL) were transferred to the 96-well plates for each sample in quadruplicate at the time of media change. At day 7, 10 µL of MTT reagent (M6494, Molecular Probes™) was added to each well of the 96 well plate and incubated at 37 °C for 4 h. The formazan was then solubilized by adding 100 µL acidified 10% SDS solution and incubated at 37 °C overnight. Plates were read for absorbance at 570 nm using a PHERAstar BMG microplate reader. The experiments were performed two times in quadruplicates with calculation of mean and SD for each condition. Data were analyzed in Prism 8.0.0 to obtain GI50 values.
(§2) Supplementary Figure 7. […] (a)
(§3) Titration curves from the MTT cell viability assay performed after 4, 7, and 11 (or 10) days of
(§4) Titration curves from the MTT cell viability assay performed after 7 days of treatment of KOPN8 ,
(§5) MOLM13 and MV4;11 cell lines harboring MLL1 translocation (MLL1-r) or K562 cell line (non-
(§6) Representative graphs are shown
(§7) from two independent MTT experiments performed for each cell line. GI50 values correspond to […]

KOPN8 cells [1] = test: MTT cell viability assay; details: MTT, 7 days
Procedure: as §1, §2, §3, §4, §5, §6, §7

KOPN8 cells [2] = test: Flow cytometry of CD11B expression (differentiation); details: 7 days
Procedure: (§8) In addition, 1 × 10^5 cells per sample were stained with Zombie Aqua™ dye (1:100 dilution) for 15 min using the Zombie Aqua™ Fixable Viability Kit (Zombie Aqua™ Fixable Viability Kit, Biolegend®) […] and then for 30 min with an anti-CD11B-PE antibody (982606, ICRF44, Biolegend®) or anti-CD11B-Pacific Blue (101224, BD BioLegend) antibody at 1:50 dilution, according to the No-wash Sequential Staining Protocol described by the manufacturer (BioLegend, Zombie Aqua Fixable Viability Kit). Cells were washed twice with 500 µL PBS containing 1% FBS and resuspended in 200 µL PBS with 1% FBS.

MV4;11 cells [3] = test: as above; details: for MV4;11 % CD11B+ cells: 7 days
Procedure: as §8

MV4;11 cells [4] = test: Annexin V apoptosis assay (flow cytometry); details: for MV4;11 % Annexin V/PI+ cells: 7 days
KOPN8 cells [5] = test: Annexin V apoptosis assay (flow cytometry); details: 7 days
[6] = tested on: MLL fusion target genes in MOLM13 cells; test: Real time qRT-PCR gene expression; set-up: key to MEIS1 expression / FLT3 expression / HOXA9 expression / MNDA expression / MEF2C expression / DLX2 expression: fold change vs DMSO-treated cells, normalized to HPRT1 (comparative Ct); details: for DLX2 expression / FLT3 expression / HOXA9 expression / MEF2C expression / MEIS1 expression / MNDA expression: MOLM13, 7 days, normalized to HPRT1, referenced to DMSO
Procedure: (§9) 0.5 × 10^6 – 3 × 10^6 cells from each sample were collected at days 7 or 8 of treatment, centrifuged at 211 xg, and RNA was extracted according to the RNeasy Mini Kit protocol (74106, Qiagen). Extracted RNA was quantified using Nanodrop 2000 UV-Vis spectrophotometer and 0.5–1 µg of total RNA was reverse transcribed into cDNA using High-Capacity cDNA Reverse Transcription Kit (4368814, Applied Biosystems™) according to the manufacturer’s protocol. Real-time PCR was performed using the CFX96 Touch Real-Time PCR Detection System (Bio-Rad). TaqMan Gene Expression Master Mix and TaqMan Gene Expression Assays were purchased from Applied Biosystems. Relative quantification of each gene transcript was carried out using the comparative Ct method as described in the Applied Biosystems User Bulletin no. 2. TaqMan Gene Expression Assays were used: HPRT1: Hs02800695_m1, DLX2: Hs00269993_m1, FLT3: Hs00174690_m1, HOXA9: Hs00365956_m1, MEF2C: Hs00231149_m1, MEIS1: Hs00180020_m1, MNDA: Hs00935905_m1.
(§10) Supplementary Figure 10. Effect of AS-nc on gene expression in MLL leukemia cells. (a, b) Quantitative RT-PCR performed in MOLM13 cells (a) or MV4;11 cells (b) after 7 days of treatment with AS-nc. Gene expression was normalized to HPRT1 and referenced to the DMSO treated cells. Representative data from two independent experiments, each performed in triplicates, […]

[7] = tested on: MLL fusion target genes in MV4;11 cells; test: Real time qRT-PCR gene expression; details: MV4;11, 7 days, 3 uM; normalized to HPRT1, referenced to DMSO
Procedure: as §9, §10

CN1CC(C(=O)NCc2ccc3c(-c4cccc(C(N)=S)c4)cn(C4CCN(S(=O)(=O)C(F)(F)F)CC4)c3c2)C1 [AS-99]
GI50 (K562 cells; Homo sapiens, 168 h, K562 (non MLL1-r), MTT, 7 days): ~10 µM
% activity K562 (K562 cells; MTT, 7 days, log[compound] -4.92082): 34.51% and 35.23% and 31.55% and 35.55%
% activity K562 (K562 cells; MTT, 7 days, log[compound] -5.22185): 83.83% and 82.23% and 83.51% and 86.83%
% activity K562 (K562 cells; MTT, 7 days, log[compound] -5.52288): 95.95% and 103.51% and 103.55% and 93.67%
% activity K562 (K562 cells; MTT, 7 days, log[compound] -5.82391): 96.63% and 103.59% and 103.23% and 96.55%
% activity K562 (K562 cells; MTT, 7 days, log[compound] -6.12494): 84.15% and 92.83% and 97.87% and 96.55%
% activity K562 (K562 cells; MTT, 7 days, log[compound] -6.42597): 86.31% and 85.15% and 89.55% and 92.55%
% activity K562 (K562 cells; MTT, 7 days, log[compound] -6.727): 85.67% and 82.35% and 87.23% and 83.91%
effect on growth/proliferation of K562 cells (K562 cells; leukemia cells without MLL1 translocations): no or limited effects at 10 µM or higher concentrations
GI50 (KOPN8 cells [1]; Homo sapiens, KOPN-8, 168 h, KOPN8 (MLL1-r)): 2900 ± 300 nM
% activity KOPN-8 (KOPN8 cells [1]; log[compound] -4.92082): 5.251% and 4.98% (2×) and 5.115%
% activity KOPN-8 (KOPN8 cells [1]; log[compound] -5.22185): 1.863% and 1.728% and 2.134%
% activity KOPN-8 (KOPN8 cells [1]; log[compound] -5.52288): 50.2371% and 54.1667% and 51.0501% and 53.0827%
% activity KOPN-8 (KOPN8 cells [1]; log[compound] -5.82391): 80.5894% and 71.1043% and 76.5244% and 75.7114%
% activity KOPN-8 (KOPN8 cells [1]; log[compound] -6.12494): 90.8875% and 88.855% and 90.6165% and 83.977%
% activity KOPN-8 (KOPN8 cells [1]; log[compound] -6.42597): 97.1206% and 99.8306% and 104.844% and 96.4431%
% activity KOPN-8 (KOPN8 cells [1]; log[compound] -6.727): 96.0366% and 101.457% and 104.844% and 97.6626%
KOPN8 % CD11B+ cells (KOPN8 cells [2]; 1 uM): 5.69% and 3.82% and 3.42%
KOPN8 % CD11B+ cells (KOPN8 cells [2]; 2 uM): 7.78% and 8.76% and 7.98%
KOPN8 % CD11B+ cells (KOPN8 cells [2]; 3 uM): 12.9% and 10.3% and 9.53%
KOPN8 % CD11B+ cells (KOPN8 cells [2]; 4 uM): 24.5% and 25.6%
MV4;11 % CD11B+ cells (MV4;11 cells [3]; 3 uM): 3.77% and 4.48% and 6.27%
MV4;11 % CD11B+ cells (MV4;11 cells [3]; 6 uM): 35.3% and 55.8% and 53.8%
differentiation in MLL leukemia cells (MV4;11 cells [3]; MV4;11 and KOPN8): induced differentiation
increased expression of the CD11B differentiation marker (MV4;11 cells [3]; MV4;11 and KOPN8): up to 50%
MV4;11 % Annexin V/PI+ cells (MV4;11 cells [4]; 3 uM): 5.84% and 5.81% and 5.56%
MV4;11 % Annexin V/PI+ cells (MV4;11 cells [4]; 4.5 uM): 21.9% and 12.8%
apoptosis in the MLL leukemia cells (Annexin V positive cells) (MV4;11 cells [4]; MV4;11 and KOPN8): induced apoptosis
KOPN8 % Annexin V/PI+ cells (KOPN8 cells [5]; 1 uM): 4.46% and 5.06% and 4.65%
KOPN8 % Annexin V/PI+ cells (KOPN8 cells [5]; 2 uM): 6.92% and 8.33% and 6.49%
KOPN8 % Annexin V/PI+ cells (KOPN8 cells [5]; 3 uM): 6.23% and 7.5% and 8.51%
KOPN8 % Annexin V/PI+ cells (KOPN8 cells [5]; 4 uM): 31.1% and 33%
DLX2 expression ([6]; 2 uM): 0.56 and 0.75 and 0.61
FLT3 expression ([6]; 2 uM): 0.69 and 0.97 and 0.78
HOXA9 expression ([6]; 2 uM): 0.72 and 0.91 and 0.9
MEF2C expression ([6]; 2 uM): 0.67 and 0.89 and 0.83
MEIS1 expression ([6]; 2 uM): 0.79 and 0.98 and 0.9
MNDA expression ([6]; 2 uM): 1.83 and 1.84 and 1.74
DLX2 expression ([6]; 4 uM): 0.44 and 0.5 and 0.58
FLT3 expression ([6]; 4 uM): 0.67 and 0.76 and 0.61
HOXA9 expression ([6]; 4 uM): 0.76 and 0.94 and 0.79
MEF2C expression ([6]; 4 uM): 0.59 and 0.77 and 0.68
MEIS1 expression ([6]; 4 uM): 0.89 and 0.77 and 0.75
MNDA expression ([6]; 4 uM): 2.92 and 2.39 and 3.74
DLX2 expression ([6]; 6 uM): 0.53 and 0.54 and 0.7
FLT3 expression ([6]; 6 uM): 0.53 and 0.65 and 0.5
HOXA9 expression ([6]; 6 uM): 0.69 and 0.9 and 0.7
MEF2C expression ([6]; 6 uM): 0.48 and 0.65 and 0.64
MEIS1 expression ([6]; 6 uM): 0.71 and 0.74 and 0.69
MNDA expression ([6]; 6 uM): 3.99 and 3.93 and 2.86
expression level of the MNDA differentiation marker ([6]; MOLM13 and MV4;11): substantial increase
expression of MLL fusion target genes (MEF2C, DLX2, FLT3, HOXA9) ([6]; MOLM13 and MV4;11): dose-dependent downregulation
DLX2 expression [7]: 0.19 and 0.27 and 0.29
FLT3 expression [7]: 0.7 and 0.8 and 0.73
HOXA9 expression [7]: 0.46 and 0.64 and 0.75
MEF2C expression [7]: 0.64 and 0.74 and 0.63
MEIS1 expression [7]: 0.76 and 0.82 and 1.02
MNDA expression [7]: 1.48 and 1.84 and 1.74
